Measured values as given in ChEMBL document CHEMBL5291721, “A preclinical secondary pharmacology resource illuminates target-adverse drug reaction associations of marketed drugs” (Nat Commun, 2023).

Columns and labels:
[1] = biological target: Beta-2 adrenergic receptor (Homo sapiens, UniProt P07550)
Vasopressin V1a receptor = Vasopressin V1a receptor (Homo sapiens, UniProt P37288)
Vasopressin V2 receptor = Vasopressin V2 receptor (Homo sapiens, UniProt P30518)
B2 bradykinin receptor = biological target: T1, B2 bradykinin receptor (Homo sapiens, UniProt P30411)
T1 sequence (P30411 whole entry): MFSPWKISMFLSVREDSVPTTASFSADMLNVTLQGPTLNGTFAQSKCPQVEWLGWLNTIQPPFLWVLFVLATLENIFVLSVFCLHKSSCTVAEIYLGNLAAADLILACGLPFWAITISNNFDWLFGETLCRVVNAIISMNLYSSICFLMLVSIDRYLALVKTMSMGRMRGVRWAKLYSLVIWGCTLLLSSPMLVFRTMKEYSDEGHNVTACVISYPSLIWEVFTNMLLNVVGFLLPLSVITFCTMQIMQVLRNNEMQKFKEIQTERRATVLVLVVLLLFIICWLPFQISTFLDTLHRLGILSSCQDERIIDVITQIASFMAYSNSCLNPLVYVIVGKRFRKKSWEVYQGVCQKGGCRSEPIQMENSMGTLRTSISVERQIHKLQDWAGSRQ

[2] = biological target: Neuronal acetylcholine receptor subunit alpha-4 (Homo sapiens, UniProt P43681)
Sequence of Neuronal acetylcholine receptor subunit alpha-4 (P43681 whole entry): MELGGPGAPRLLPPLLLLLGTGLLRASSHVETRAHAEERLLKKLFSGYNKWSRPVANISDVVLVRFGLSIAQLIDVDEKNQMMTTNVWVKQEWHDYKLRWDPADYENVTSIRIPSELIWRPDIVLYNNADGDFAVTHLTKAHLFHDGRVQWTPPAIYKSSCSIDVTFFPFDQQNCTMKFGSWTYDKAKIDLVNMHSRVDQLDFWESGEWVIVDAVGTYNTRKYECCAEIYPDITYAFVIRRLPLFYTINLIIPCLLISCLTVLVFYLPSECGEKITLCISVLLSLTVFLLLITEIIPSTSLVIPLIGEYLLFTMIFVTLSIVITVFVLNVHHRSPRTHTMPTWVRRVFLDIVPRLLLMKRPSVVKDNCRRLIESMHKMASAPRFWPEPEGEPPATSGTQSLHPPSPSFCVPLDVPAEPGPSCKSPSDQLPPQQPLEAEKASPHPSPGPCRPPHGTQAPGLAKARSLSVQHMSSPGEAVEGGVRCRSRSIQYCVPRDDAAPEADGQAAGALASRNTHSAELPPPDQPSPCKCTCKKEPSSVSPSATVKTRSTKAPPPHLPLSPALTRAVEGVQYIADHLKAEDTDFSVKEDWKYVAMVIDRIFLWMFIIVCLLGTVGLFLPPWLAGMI

[3] = biological target: T2, 5-hydroxytryptamine receptor 1A (Homo sapiens, UniProt P08908); format: functional, cell-based
T2 sequence (P08908 whole entry): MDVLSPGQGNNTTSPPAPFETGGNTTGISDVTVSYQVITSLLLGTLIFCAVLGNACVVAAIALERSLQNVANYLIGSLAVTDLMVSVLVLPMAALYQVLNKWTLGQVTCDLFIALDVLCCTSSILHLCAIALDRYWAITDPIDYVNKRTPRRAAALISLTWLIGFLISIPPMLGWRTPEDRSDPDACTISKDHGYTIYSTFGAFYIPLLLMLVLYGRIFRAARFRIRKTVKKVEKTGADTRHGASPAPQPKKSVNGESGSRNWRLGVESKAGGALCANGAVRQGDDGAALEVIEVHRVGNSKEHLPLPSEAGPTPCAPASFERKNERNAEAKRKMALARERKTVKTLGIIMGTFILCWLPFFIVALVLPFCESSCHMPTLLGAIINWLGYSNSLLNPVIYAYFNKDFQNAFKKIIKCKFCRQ

[4] = biological target: T3, Neuropeptide Y receptor type 1 (Homo sapiens, UniProt P25929)
T3 sequence (P25929 whole entry): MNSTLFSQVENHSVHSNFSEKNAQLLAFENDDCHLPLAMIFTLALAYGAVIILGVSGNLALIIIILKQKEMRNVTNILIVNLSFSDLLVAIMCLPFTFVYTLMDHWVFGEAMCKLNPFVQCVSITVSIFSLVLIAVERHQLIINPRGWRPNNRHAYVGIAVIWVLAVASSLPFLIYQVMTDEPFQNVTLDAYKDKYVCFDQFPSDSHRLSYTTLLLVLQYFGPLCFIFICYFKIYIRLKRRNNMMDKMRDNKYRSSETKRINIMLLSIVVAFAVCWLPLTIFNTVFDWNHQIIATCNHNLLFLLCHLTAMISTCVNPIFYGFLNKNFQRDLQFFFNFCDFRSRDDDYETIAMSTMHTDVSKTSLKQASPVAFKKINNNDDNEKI

Mu-type opioid receptor = Mu-type opioid receptor (Homo sapiens, UniProt P35372); test: biochemical; format: functional
Sequence of Mu-type opioid receptor (P35372 whole entry): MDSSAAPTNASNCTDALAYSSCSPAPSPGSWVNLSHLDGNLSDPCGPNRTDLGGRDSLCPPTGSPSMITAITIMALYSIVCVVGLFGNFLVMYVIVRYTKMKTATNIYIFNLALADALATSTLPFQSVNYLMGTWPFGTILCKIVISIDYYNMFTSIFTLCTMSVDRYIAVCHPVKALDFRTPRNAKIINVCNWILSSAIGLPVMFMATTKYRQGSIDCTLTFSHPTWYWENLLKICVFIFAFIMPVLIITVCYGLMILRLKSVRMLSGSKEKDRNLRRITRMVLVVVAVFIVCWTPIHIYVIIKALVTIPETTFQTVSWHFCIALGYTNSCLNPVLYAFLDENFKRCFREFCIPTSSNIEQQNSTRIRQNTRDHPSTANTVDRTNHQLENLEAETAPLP

Progesterone receptor = biological target: T4, Progesterone receptor (Homo sapiens, UniProt P06401); format: functional
T4 sequence (P06401 whole entry): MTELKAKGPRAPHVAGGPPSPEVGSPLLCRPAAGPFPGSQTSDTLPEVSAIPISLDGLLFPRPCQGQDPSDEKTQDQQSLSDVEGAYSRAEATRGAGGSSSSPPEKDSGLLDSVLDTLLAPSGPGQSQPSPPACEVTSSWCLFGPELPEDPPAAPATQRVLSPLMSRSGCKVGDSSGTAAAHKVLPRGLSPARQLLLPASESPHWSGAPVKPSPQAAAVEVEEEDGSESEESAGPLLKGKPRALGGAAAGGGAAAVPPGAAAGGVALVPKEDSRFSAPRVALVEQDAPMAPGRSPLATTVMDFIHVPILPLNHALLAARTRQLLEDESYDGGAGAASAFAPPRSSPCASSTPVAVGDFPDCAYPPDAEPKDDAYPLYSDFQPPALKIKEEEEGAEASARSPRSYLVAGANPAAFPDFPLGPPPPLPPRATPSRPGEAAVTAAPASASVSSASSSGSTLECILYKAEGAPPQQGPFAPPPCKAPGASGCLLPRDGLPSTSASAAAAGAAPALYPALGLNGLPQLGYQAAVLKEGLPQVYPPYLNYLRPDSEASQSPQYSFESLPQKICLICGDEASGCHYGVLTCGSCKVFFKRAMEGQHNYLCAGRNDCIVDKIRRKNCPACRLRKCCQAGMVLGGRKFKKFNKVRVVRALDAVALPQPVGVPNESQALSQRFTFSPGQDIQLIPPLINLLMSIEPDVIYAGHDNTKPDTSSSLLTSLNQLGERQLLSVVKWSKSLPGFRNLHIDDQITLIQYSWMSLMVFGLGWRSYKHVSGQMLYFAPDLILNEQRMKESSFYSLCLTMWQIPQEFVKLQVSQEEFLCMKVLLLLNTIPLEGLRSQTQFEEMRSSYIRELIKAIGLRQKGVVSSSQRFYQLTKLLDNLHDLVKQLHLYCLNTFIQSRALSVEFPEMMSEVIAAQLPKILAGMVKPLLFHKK

[5] = biological target: 5-hydroxytryptamine receptor 2A (Homo sapiens, UniProt P28223); format: functional, cell-based
Sequence of 5-hydroxytryptamine receptor 2A (P28223 whole entry): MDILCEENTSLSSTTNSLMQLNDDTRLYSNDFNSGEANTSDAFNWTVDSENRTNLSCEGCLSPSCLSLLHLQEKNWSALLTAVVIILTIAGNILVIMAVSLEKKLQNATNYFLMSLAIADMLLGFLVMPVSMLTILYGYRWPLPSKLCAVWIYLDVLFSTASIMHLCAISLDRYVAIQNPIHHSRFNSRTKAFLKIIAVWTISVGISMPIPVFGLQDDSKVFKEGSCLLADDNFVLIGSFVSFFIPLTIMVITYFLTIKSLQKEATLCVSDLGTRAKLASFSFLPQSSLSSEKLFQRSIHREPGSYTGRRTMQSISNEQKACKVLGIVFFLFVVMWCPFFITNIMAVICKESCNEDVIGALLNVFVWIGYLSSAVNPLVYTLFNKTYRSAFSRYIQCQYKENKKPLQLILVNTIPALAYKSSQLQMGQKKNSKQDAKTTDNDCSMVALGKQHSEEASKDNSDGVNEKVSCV
Also: assay procedure not described here.

Sequence of Vasopressin V2 receptor (P30518 whole entry): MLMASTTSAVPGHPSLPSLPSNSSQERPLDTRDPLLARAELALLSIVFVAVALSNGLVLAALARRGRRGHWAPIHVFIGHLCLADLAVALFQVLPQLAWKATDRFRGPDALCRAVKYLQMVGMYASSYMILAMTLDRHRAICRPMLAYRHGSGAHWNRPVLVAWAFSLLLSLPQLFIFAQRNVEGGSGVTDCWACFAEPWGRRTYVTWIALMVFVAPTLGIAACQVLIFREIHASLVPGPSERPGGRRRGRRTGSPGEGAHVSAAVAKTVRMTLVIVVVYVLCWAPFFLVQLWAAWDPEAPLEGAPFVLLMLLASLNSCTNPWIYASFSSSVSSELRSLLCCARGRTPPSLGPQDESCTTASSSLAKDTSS
Sequence of Vasopressin V1a receptor (P37288 whole entry): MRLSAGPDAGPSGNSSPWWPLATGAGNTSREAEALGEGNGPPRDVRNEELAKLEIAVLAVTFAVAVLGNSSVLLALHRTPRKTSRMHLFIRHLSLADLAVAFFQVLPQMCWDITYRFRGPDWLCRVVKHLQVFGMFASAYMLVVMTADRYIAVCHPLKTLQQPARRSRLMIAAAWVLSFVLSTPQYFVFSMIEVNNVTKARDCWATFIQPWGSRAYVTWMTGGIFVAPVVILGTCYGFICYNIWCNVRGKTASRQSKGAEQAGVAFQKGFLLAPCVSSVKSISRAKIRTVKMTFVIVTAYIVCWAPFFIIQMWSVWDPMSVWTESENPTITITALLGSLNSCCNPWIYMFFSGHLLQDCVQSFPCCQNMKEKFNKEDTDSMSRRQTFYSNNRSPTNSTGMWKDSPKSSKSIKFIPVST
Sequence of Beta-2 adrenergic receptor (P07550 whole entry): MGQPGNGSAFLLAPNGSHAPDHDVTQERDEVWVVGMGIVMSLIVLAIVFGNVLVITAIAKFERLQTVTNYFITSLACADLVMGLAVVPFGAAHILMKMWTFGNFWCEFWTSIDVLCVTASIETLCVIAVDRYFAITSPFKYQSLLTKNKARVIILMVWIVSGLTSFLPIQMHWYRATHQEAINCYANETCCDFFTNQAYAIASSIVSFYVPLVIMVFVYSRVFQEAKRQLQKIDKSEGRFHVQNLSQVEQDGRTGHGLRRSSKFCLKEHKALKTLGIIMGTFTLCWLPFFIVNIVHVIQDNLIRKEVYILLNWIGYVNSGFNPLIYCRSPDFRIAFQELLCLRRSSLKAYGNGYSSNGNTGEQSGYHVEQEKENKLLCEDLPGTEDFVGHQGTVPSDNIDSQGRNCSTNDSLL

Compound	AC50 [1] [µM]	AC50 (Vasopressin V1a receptor) [µM]	AC50 (Vasopressin V2 receptor) [µM]	AC50 (B2 bradykinin receptor) [µM]	AC50 [2] [µM]	AC50 [3] [µM]	AC50 [4] [µM]	AC50 (Mu-type opioid receptor) [µM]	AC50 (Progesterone receptor) [µM]	AC50 [5] [µM]
C[N+](C)(C)CCOC(N)=O [CARBAMOYLCHOLINE]	> 10	> 10	> 10	> 10	> 10	> 30	> 10	> 30	> 10	–
CN(C)CCCN1c2ccccc2Sc2ccccc21 [PROMAZINE]	7.6	> 10	> 30	> 30	–	> 10	> 30	2.9	–	–
N[C@@H](CSCC(=O)O)C(=O)O [CARBOCYSTEINE]	> 30	> 30	> 30	> 30	> 30	> 30	> 30	> 30	> 30	> 30
CN(CCCN1c2ccccc2CCc2ccccc21)CC(=O)c1ccc(Cl)cc1 [LOFEPRAMINE]	20	> 30	> 30	> 10	> 30	–	> 30	> 30	–	> 30
NS(=O)(=O)c1cc(Cl)c(Cl)c(S(N)(=O)=O)c1 [DICHLORPHENAMIDE]	> 10	> 10	> 10	> 10	> 10	> 10	> 10	–	> 10	> 10
CC(=O)N[C@H]1[C@H]([C@H](O)[C@H](O)CO)OC(C(=O)O)=C[C@@H]1N=C(N)N [ZANAMIVIR]	> 30	> 30	> 30	> 30	> 30	> 30	> 30	> 30	> 30	> 30
C[N+](C)(C)CC(=O)O [BETAINE]	> 30	> 30	> 30	> 30	> 30	> 30	> 30	> 30	> 30	> 30
CC(=O)N(CC(O)CO)c1c(I)c(C(=O)NCC(O)CO)c(I)c(C(=O)NCC(O)CO)c1I (centres undefined) [IOHEXOL]	> 30	> 30	> 30	> 30	> 10	> 10	> 30	–	–	> 30
CN(C/C=C/c1ccccc1)Cc1cccc2ccccc12 [NAFTIFINE]	> 30	–	> 30	> 30	> 10	> 10	> 30	–	> 30	–
O=C(O)c1cccc(-c2noc(-c3ccccc3F)n2)c1	> 30	–	–	–	> 10	–	–	–	–	–
NS(=O)(=O)c1cc(-c2nnn[nH]2)c(NCc2cccs2)cc1Cl [AZOSEMIDE]	> 30	> 30	> 30	> 30	> 30	–	> 30	> 30	> 30	> 30
C=C1C[C@@H]2[C@H](CC[C@]3(C)C(=O)CC[C@@H]23)[C@@]2(C)C=CC(=O)C=C12 [EXEMESTANE]	> 10	> 30	> 30	> 30	> 10	> 10	> 30	–	–	> 30
CCCC(=O)N1CCCN(c2nc(N)c3cc(OC)c(OC)cc3n2)CC1 [BUNAZOSIN]	–	> 30	> 30	> 30	> 30	> 30	> 30	> 30	> 30	> 30
O=C(O)CCn1c2c(c3ccccc31)C[C@H](NS(=O)(=O)c1ccc(F)cc1)CC2 [RAMATROBAN]	> 30	> 30	> 30	> 30	> 30	> 10	> 30	> 30	> 30	> 10
CC(C)NCC1CCc2cc(CO)c([N+](=O)[O-])cc2N1 (centres undefined) [OXAMNIQUINE]	> 10	> 10	> 10	> 10	> 10	> 30	> 10	–	> 10	> 30
O=C(Nc1ccccc1)OCC(CN1CCCCC1)OC(=O)Nc1ccccc1 (centres undefined) [DIPERODON]	> 10	> 10	> 30	> 30	–	> 10	> 30	4.1	–	> 30
CC(=O)O[C@]1(C(C)=O)CC[C@H]2[C@@H]3C[C@H](C)C4=CC(=O)CC[C@]4(C)[C@H]3CC[C@@]21C [MEDROXYPROGESTERONE ACETATE]	–	> 30	> 30	> 30	> 30	–	> 30	–	–	–
CC(C)(N)Cc1ccc(Cl)cc1 [CHLORPHENTERMINE]	> 10	> 30	> 30	> 30	10	> 10	> 30	–	–	> 30
O=P(O)(O)C(O)(Cc1cccnc1)P(=O)(O)O [RISEDRONIC ACID]	> 30	> 30	> 30	> 30	> 30	> 10	> 30	> 30	> 30	–
CC(C(O)c1ccc(O)cc1)N1CCC(Cc2ccccc2)CC1 (centres undefined) [IFENPRODIL]	> 30	> 30	> 30	> 30	> 30	–	> 30	> 30	–	> 30
CS(=O)(=O)Nc1cc2occ(NC=O)c(=O)c2cc1Oc1ccccc1 [IGURATIMOD]	–	–	–	–	–	–	–	–	> 30	–
O=C1CCC(N2C(=O)c3ccccc3C2=O)C(=O)N1 (centres undefined) [THALIDOMIDE]	> 10	> 10	> 30	> 30	–	> 10	> 30	–	–	–
CN(C)[C@@H]1C(O)=C(C(N)=O)C(=O)[C@@]2(O)C(O)=C3C(=O)c4c(O)ccc(Cl)c4[C@@H](O)[C@H]3C[C@@H]12 [DEMECLOCYCLINE]	> 10	> 10	> 10	> 10	> 10	> 10	> 10	–	> 30	> 10
